Legend:
[1] = biological target: BTK enzyme (recombinant full-length BTK, hBTK) (Homo sapiens (Human), UniProt Q06187); experiment: Btk enzyme activity assay, LANCE TR-FRET; type: biochemical; settings: 50 pM hBTK, 2 μM biotin-A5-peptide, 25 μM ATP; 60 minute compound & enzyme incubation; read-out: BTK binding IC50
Description: Btk Enzyme Activity Assay Methods
BTK enzymatic activity was determined with the LANCE (Lanthanide Chelate Excite) TR-FRET (Time-resolved fluorescence resonance energy transfer) assay. […] After 60 minutes incubation with detection reagents, reaction plates were read on a PerkinElmer EnVision plate reader using standard TR-FRET protocol.

[2] = test system: HeLa cells; experiment: [3H] Adenosine uptake assay; type: cell-based; settings: Homo sapiens, HeLa, accumulation of tritiated adenosine into HeLa cells; compound concentration range 10 μM to 0.032 nM; read-out: ADU inhibition IC50 (adenosine uptake inhibition potency)
In short: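 Accumulation of tritiated adenosine in adherent HeLa cells, detected by scintillant-plate coincidence counting, gives IC50 via 4-parameter robust fit. Compound (constant 0.25% DMSO) applied 30 min ahead, then 60 min radiolabel exposure (added from 500 nM solution), ambient conditions, HBSS with 5% FBS.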

Chain of BTK enzyme (recombinant full-length BTK, hBTK) (Q06187 whole entry): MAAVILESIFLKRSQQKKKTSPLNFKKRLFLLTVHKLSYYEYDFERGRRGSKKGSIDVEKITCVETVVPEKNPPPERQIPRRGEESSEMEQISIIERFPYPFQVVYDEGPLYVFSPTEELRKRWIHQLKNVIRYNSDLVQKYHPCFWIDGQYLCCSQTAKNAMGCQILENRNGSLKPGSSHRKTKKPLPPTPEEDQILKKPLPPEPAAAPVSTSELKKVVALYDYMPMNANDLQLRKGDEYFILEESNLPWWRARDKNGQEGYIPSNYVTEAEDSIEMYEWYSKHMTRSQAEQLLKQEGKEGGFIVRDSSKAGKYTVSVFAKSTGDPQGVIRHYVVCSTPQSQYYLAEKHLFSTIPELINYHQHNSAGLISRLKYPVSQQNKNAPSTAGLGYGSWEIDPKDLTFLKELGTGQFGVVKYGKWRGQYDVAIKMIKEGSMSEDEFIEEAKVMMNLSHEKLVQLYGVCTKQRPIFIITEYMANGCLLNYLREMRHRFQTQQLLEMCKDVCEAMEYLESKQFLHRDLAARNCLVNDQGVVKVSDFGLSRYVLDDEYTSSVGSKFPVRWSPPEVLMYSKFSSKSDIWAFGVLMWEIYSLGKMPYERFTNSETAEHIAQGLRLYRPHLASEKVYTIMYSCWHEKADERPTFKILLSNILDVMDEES

Row | SMILES | IC50 [1] [nM] | IC50 [2] [nM]
1 | C[C@]1(C(=O)O)CCN(c2nc(-c3ccc(C(=O)Nc4cc(C(F)(F)F)ccn4)cc3)c3c(N)nccn23)C1 [Example 45, (3S)-1-[8-amino-1-(4-{[4-(trifluoromethyl)pyridin-2-yl]carbamoyl}phenyl)imidazo[1,5-a]pyrazin-3-yl]-3-methylpyrrolidine-3-carboxylic acid] | 1.4 | 10000
2 | CCOc1cc(C(=O)Nc2cc(C(F)(F)F)ccn2)ccc1-c1nc([C@H]2CC[C@@](C(=O)O)(C(C)C)C2)n2c(Cl)cnc(N)c12 [Example 111, (1S,3S)-3-[8-amino-5-chloro-1-(2-ethoxy-4-{[4-(trifluoromethyl)pyridin-2-yl]carbamoyl}phenyl)imidazo[1,5-a]pyrazin-3-yl]-1-(1-methylethyl) cyclopentane-carboxylic acid] | 24.9 | 10000
3 | Nc1nccn2c(-c3cccc(C(=O)O)c3)nc(-c3ccc(C(=O)Nc4cc(C(F)(F)F)ccn4)cc3)c12 [Example 23, 3-(8-amino-1-(4-((4-(trifluoromethyl)pyridin-2-yl)carbamoyl)phenyl)imidazo[1,5-a]pyrazin-3-yl)benzoic acid] | 0.56 | 10000
4 | Nc1nccn2c([C@@H]3CCN[C@@H](C(=O)O)C3)nc(-c3ccc(C(=O)Nc4cc(C(F)(F)F)ccn4)cc3)c12 [Example 33, (2R,4R)-4-[8-amino-1-(4-{[4-(trifluoromethyl)pyridin-2-yl]carbamoyl}phenyl)imidazo[1,5-a]pyrazin-3-yl]piperidine-2-carboxylic acid] | 4.4 | 6800
5 | CCOc1cc(C(=O)Nc2cc(C(F)(F)F)ccn2)ccc1-c1nc([C@@H]2C[C@H]3CC[C@@H](C2)[C@H]3C(=O)O)n2ccnc(N)c12 [Example 105, (3-exo,8-syn)-3-[8-amino-1-(2-ethoxy-4-{[4-(trifluoromethyl)pyridin-2-yl]carbamoyl}phenyl)imidazo[1,5-a]pyrazin-3-yl]bicyclo[3.2.1] octane-8-carboxylic acid] | 1.9 | 10000
6 | CCOc1cc(C(=O)Nc2cc(C(F)(F)F)n(C)n2)ccc1-c1nc([C@H]2CC[C@@](C(=O)O)(C(C)C)C2)n2ccnc(N)c12 [Example 53, (1S,3S)-3-[8-amino-1-(2-ethoxy-4-{[1-methyl-5-(trifluoromethyl)-1H-pyrazol-3-yl]carbamoyl}phenyl)imidazo[1,5-a]pyrazin-3-yl]-1-(1-methylethyl) cyclopentane-carboxylic acid] | 0.87 | 10000
7 | Nc1nccn2c(C34CCC(C(=O)O)(CC3)CC4)nc(-c3ccc(C(=O)Nc4cc(C(F)(F)F)ccn4)cc3)c12 [Example 168, 4-[8-amino-1-(4-{[4-(trifluoromethyl)pyridin-2-yl]carbamoyl}phenyl)imidazo[1,5-a]pyrazin-3-yl]bicyclo[2.2.2] octane-1-carboxylic acid] | 0.13 | 308
8 | COc1cc(C(=O)Nc2cc(C(F)(F)F)ccn2)cc(F)c1-c1nc(C23CCC(C(=O)O)(CC2)CC3)n2c(F)cnc(N)c12 [Example 122, 4-[8-amino-5-fluoro-1-(2-fluoro-6-methoxy-4-{[4-(trifluoromethyl)pyridin-2-yl]carbamoyl}phenyl)imidazo[1,5-a]pyrazin-3-yl]bicyclo[2.2.2] octane-1-carboxylic acid] | 0.91 | 10000
9 | C[C@H]1CO[C@@H](c2nc(-c3ccc(C(=O)Nc4cc(C(F)(F)F)ccn4)cc3)c3c(N)nccn23)CN1C(=O)C12CC(C(=O)O)(C1)C2 [Example 175, 3-((2R,5S)-2-(8-amino-1-(4-((4-(trifluoromethyl)pyridin-2-yl)carbamoyl)phenyl)imidazo[1,5-a]pyrazin-3-yl)-5-methylmorpholine-4-carbonyl)bicyclo[1.1.1]pentane-1-carboxylic acid] | 0.37 | 10000
10 | CCOc1cc(C(=O)Nc2cc(C(F)(F)F)ccn2)ccc1-c1nc(C2(C)CCC(C)(C(=O)O)CC2)n2ccnc(N)c12 (centres unmarked) [Example 78, 4-[8-amino-1-(2-ethoxy-4-{[4-(trifluoromethyl)pyridin-2-yl]carbamoyl}phenyl)imidazo[1,5-a]pyrazin-3-yl]-1,4-dimethylcyclohexane-carboxylic acid] | 1.3 | 5140
11 | Nc1nccn2c(C34C5C6C3C3C4C5C63C(=O)O)nc(-c3ccc(C(=O)Nc4cc(C5CC5)ccn4)cc3F)c12 (centres unmarked) [Example 74, 4-(8-amino-1-(4-((4-cyclopropylpyridin-2-yl)carbamoyl)-2-fluorophenyl)imidazo [1,5-a]pyrazin-3-yl)cubane-1-carboxylic acid] | 0.54 | 113
12 | CC(C)[C@@]1(C(=O)O)CC[C@@H](N2C[C@H](c3nc(-c4ccc(C(=O)Nc5cc(C(F)(F)F)ccn5)cc4F)c4c(N)ncc(Cl)n34)OC[C@@H]2C)C1 [Example 202, (1R,3R)-3-{(2R,5S)-2-[8-amino-5-chloro-1-(2-fluoro-4-{[4-(trifluoromethyl)pyridin-2-yl]carbamoyl}phenyl)imidazo [1,5-a]pyrazin-3-yl]-5-methylmorpholin-4-yl}-1-(1-methylethyl) cyclopentanecarboxylic acid] | 0.76 | 4580
13 | Nc1nccn2c([C@@H]3CCCN(C(=O)C4CC4C(=O)O)C3)nc(-c3ccc(C(=O)Nc4cc(C(F)(F)F)ccn4)cc3)c12 (stereo partly drawn) [Example 150, 2-({(3R)-3-[8-amino-1-(4-{[4-(trifluoromethyl)pyridin-2-yl]carbamoyl}phenyl)imidazo[1,5-a]pyrazin-3-yl]piperidin-1-yl}carbonyl) cyclopropane-carboxylic acid] | 1.3 | 6650
14 | CCOc1cc(C(=O)Nc2cc(C(F)(F)F)ccn2)ccc1-c1nc([C@@H]2CC[C@](C(=O)O)(C(C)C)C2)n2ccnc(N)c12 [Example 61, (1R,3R)-3-[8-amino-1-(2-ethoxy-4-{[4-(trifluoromethyl)pyridin-2-yl]carbamoyl}phenyl)imidazo[1,5-a]pyrazin-3-yl]-1-(1-methylethyl) cyclopentane-carboxylic acid] | 2.4 | 10000
15 | CCOc1cc(C(=O)Nc2cc(C(F)(F)F)n(C)n2)ccc1-c1nc([C@@H]2CC[C@](C(=O)O)(C(C)C)C2)n2ccnc(N)c12 [Example 59, (1R,3R)-3-[8-amino-1-(2-ethoxy-4-{[1-methyl-5-(trifluoromethyl)-1H-pyrazol-3-yl]carbamoyl}phenyl)imidazo[1,5-a]pyrazin-3-yl]-1-(1-methylethyl) cyclopentane-carboxylic acid] | 24.1 | 10000
16 | COc1cc(C(=O)Nc2cc(C(F)(F)F)ccn2)ccc1-c1nc([C@H]2CN(C(C)(C)C(=O)O)CCO2)n2ccnc(N)c12 [Example 184, 2-{(2R)-2-[8-amino-1-(2-methoxy-4-{[4-(trifluoromethyl)pyridin-2-yl]carbamoyl}phenyl)imidazo [1,5-a]pyrazin-3-yl]morpholin-4-yl}-2-methylpropanoic acid] | 61.2 | 5410
17 | COc1cc(C(=O)Nc2cc(C(F)(F)F)ccn2)ccc1-c1nc([C@H]2CN(C3CCC(C)(C(=O)O)CC3)[C@@H](C)CO2)n2ccnc(N)c12 (stereo partly drawn) [Example 181, 4-{(2R,5S)-2-[8-amino-1-(2-methoxy-4-{[4-(trifluoromethyl)pyridin-2-yl]carbamoyl}phenyl)imidazo [1,5-a]pyrazin-3-yl]-5-methylmorpholin-4-yl}-1-methylcyclohexanecarboxylic acid] | 1.8 | 2340
18 | CN1CC[C@@H](c2nc(-c3ccc(C(=O)Nc4cc(C(F)(F)F)ccn4)cc3)c3c(N)nccn23)C[C@H]1C(=O)O [Example 82, (2S,4R)-4-[8-amino-1-(4-{[4-(trifluoromethyl)pyridin-2-yl]carbamoyl}phenyl)imidazo[1,5-a]pyrazin-3-yl]-1-methylpiperidine-2-carboxylic acid] | 1.2 | 1730
19 | CCOc1cc(C(=O)Nc2cc(C(F)(F)F)ccn2)ccc1-c1nc([C@@H]2CC[C@@](C(=O)O)(C(C)C)C2)n2ccnc(N)c12 [Example 60, (1S,3R)-3-[8-amino-1-(2-ethoxy-4-{[4-(trifluoromethyl)pyridin-2-yl]carbamoyl}phenyl)imidazo[1,5-a]pyrazin-3-yl]-1-(1-methylethyl) cyclopentane-carboxylic acid] | 7.5 | 10000
20 | CC1(C)[C@H](c2nc(-c3ccc(C(=O)Nc4cc(C(F)(F)F)ccn4)cc3)c3c(N)nccn23)CC[C@]1(C)C(=O)O [Example 69, (1S,3R)-3-[8-amino-1-(4-{[4-(trifluoromethyl)pyridin-2-yl]carbamoyl}phenyl)imidazo[1,5-a]pyrazin-3-yl]-1,2,2-trimethylcyclopentane carboxylic acid] | 0.37 | 1080
21 | CC1(C(=O)O)CCC(C)(c2nc(-c3ccc(C(=O)Nc4cc(C(F)(F)F)ccn4)cc3F)c3c(N)nccn23)CC1 (centres unmarked) [Example 134, 4-[8-amino-1-(2-fluoro-4-{[4-(trifluoromethyl)pyridin-2-yl]carbamoyl}phenyl)imidazo[1,5-a]pyrazin-3-yl]-1,4-dimethylcyclohexane-carboxylic acid] | 0.5 | 2770
22 | CC1(C(=O)O)CCC(N2CCC[C@@H](c3nc(-c4ccc(C(=O)Nc5cc(C(F)(F)F)ccn5)cc4F)c4c(N)nccn34)C2)CC1 (stereo partly drawn) [Example 182, 4-{(3R)-3-[8-amino-1-(2-fluoro-4-{[4-(trifluoromethyl)pyridin-2-yl]carbamoyl}phenyl)imidazo [1,5-a]pyrazin-3-yl]piperidin-1-yl}-1-methylcyclohexanecarboxylic acid] | 1.9 | 179
